Measured values from ChEMBL document CHEMBL5634079, “Development of novel celastrol-ligustrazine hybrids as potent peroxiredoxin 1 inhibitors against lung cancer” (Eur J Med Chem, 2023).
The source made the active and inactive calls. The rule behind the calls is not given here.

Tests used:
[1] = Toxicity in C57BL/6J mouse implanted with mouse Lewis lung carcinoma cell line assessed as spleen damage at 0.5 to 1 mg/kg, ip administered every day for 19 days; type: organism-based; details: in vivo, 456 h, dose 0.5-1 mg/kg, time 19 day
A549 [2] = test: Inhibition of PI3K phosphorylation in human A549 cells at 2 to 4 uM by Western blot analysis; type: cell-based; details: dose 2-4 µM
A549 [3] = test: Downregulation of PRDX6 level in human A549 cells at 2 to 4 uM by Western blot analysis; type: functional, cell-based; details: dose 2-4 µM
A549 [4] = test: Induction of cell cycle arrest in human A549 cells assessed as decrease in CDK2 level at 2 to 4 uM by Western blot analysis; type: functional, cell-based; details: dose 2-4 µM
NCI-H1975 = test: Antiproliferative activity against human NCI-H1975 cells assessed as inhibition of cell growth incubated for 48 hrs by MTT assay; type: functional, cell-based; details: NCI-H1975, 48 h
[5] = Toxicity in C57BL/6J mouse implanted with mouse Lewis lung carcinoma cell line assessed as heart damage at 0.5 to 1 mg/kg, ip administered every day for 19 days; type: organism-based; details: in vivo, 456 h, dose 0.5-1 mg/kg, time 19 day
A549 [6] = test: Inhibition of ERK phosphorylation in human A549 cells at 2 to 4 uM by Western blot analysis; type: cell-based; details: dose 2-4 µM
A549 [7] = test: Induction of apoptosis in human A549 cells assessed as decrease in PCNA level at 2 to 4 uM by Western blot analysis; type: functional, cell-based; details: dose 2-4 µM
A549 [8] = test: Induction of apoptosis in human A549 cells assessed as viable cells at 2 uM incubated for 48 hrs by Annexin V-FITC and PI staining based flow cytometric analysis (reference value: 93.8%); type: functional; details: read-out: Activity
[9] = Toxicity in C57BL/6J mouse implanted with mouse Lewis lung carcinoma cell line assessed as kidney damage at 0.5 to 1 mg/kg, ip administered every day for 19 days; type: organism-based; details: in vivo, 456 h, dose 0.5-1 mg/kg, time 19 day
[10] = Antitumor activity against mouse Lewis lung carcinoma cell line implanted in C57BL/6J mouse assessed as tumor growth inhibition at 1 mg/kg, ip administered every day for 19 days; type: functional; details: 456 h, time 19 day, read-out: TGI
A549 [11] = test: Inhibition of AKT phosphorylation in human A549 cells at 2 to 4 uM by Western blot analysis; type: cell-based; details: dose 2-4 µM
A549 [12] = test: Induction of apoptosis in human A549 cells assessed as increase in cleaved caspase-3 expression at 2 to 4 uM by Western blot analysis; type: functional, cell-based; details: dose 2-4 µM
Lewis lung carcinoma [13] = test: Antitumor activity against mouse Lewis lung carcinoma cell line implanted in C57BL/6J mouse assessed as tumor cell contraction at 0.5 to 1 mg/kg, ip administered every day for 19 days by H and E staining based analysis; type: functional, organism-based; details: dose 0.5-1 mg/kg, time 19.0 day
A549 [14] = test: Downregulation of PRDX3 level in human A549 cells at 2 to 4 uM by Western blot analysis; type: functional, cell-based; details: dose 2-4 µM
A549 [15] = test: Induction of apoptosis in human A549 cells assessed as early apoptotic cells at 4 uM incubated for 48 hrs by Annexin V-FITC and PI staining based flow cytometric analysis (reference value: 0.76%); type: functional
A549 [16] = test: Inhibition of cell invasion in human A549 cells incubated for 12 to 48 hrs by crystal violet staining based microscopic analysis; type: functional; details: dose 2-4 µM, time 12-48 hrs
A549 [17] = test: Induction of apoptosis in human A549 cells assessed as necrotic cells at 4 uM incubated for 48 hrs by Annexin V-FITC and PI staining based flow cytometric analysis (reference value: 4.68%); type: functional
A549 [18] = test: Induction of apoptosis in human A549 cells assessed as late apoptotic cells at 2 uM incubated for 48 hrs by Annexin V-FITC and PI staining based flow cytometric analysis (reference value: 0.73%); type: functional
A549 [19] = test: Downregulation of PRDX1 gene expression in human A549 cells at 2 to 4 uM by Q-PCR analysis; type: functional, cell-based; details: dose 2-4 µM
A549 [20] = test: Induction of apoptosis in human A549 cells assessed as increase in cleaved PARP expression at 2 to 4 uM by Western blot analysis; type: functional, cell-based; details: dose 2-4 µM
A549 [21] = test: Induction of apoptosis in human A549 cells assessed as early apoptotic cells at 2 uM incubated for 48 hrs by Annexin V-FITC and PI staining based flow cytometric analysis (reference value: 0.76%); type: functional
Lewis lung carcinoma [22] = test: Antitumor activity against mouse Lewis lung carcinoma cell line implanted in C57BL/6J mouse assessed as reduction in tumor cell proliferation by measuring reduction in Ki67 expression at 0.5 to 1 mg/kg, ip administered every day for 19 days; type: functional, organism-based; details: dose 0.5-1 mg/kg, time 19.0 day
Peroxiredoxin-1 = biological target: T1, Peroxiredoxin-1 (Homo sapiens, UniProt Q06830); test: Inhibition of PRDX1 (unknown origin) in presence of cofactor A/cofactor B/NADPH incubated for 25 mins; details: read-out: IC50
T1 sequence (Q06830 whole entry): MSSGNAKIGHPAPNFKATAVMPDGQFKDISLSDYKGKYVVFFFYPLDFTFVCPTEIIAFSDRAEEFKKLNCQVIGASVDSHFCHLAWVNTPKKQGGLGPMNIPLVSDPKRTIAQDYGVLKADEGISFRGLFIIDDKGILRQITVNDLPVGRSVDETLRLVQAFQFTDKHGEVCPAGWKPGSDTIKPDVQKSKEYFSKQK

A549 [23] = test: Induction of cell cycle arrest in human A549 cells assessed as decrease in CDK4 level at 2 to 4 uM by Western blot analysis; type: functional, cell-based; details: dose 2-4 µM
A549 [24] = test: Downregulation of PRDX1 level in human A549 cells at 2 to 4 uM by Western blot analysis; type: functional, cell-based; details: dose 2-4 µM
A549 [25] = test: Induction of intracellular ROS generation in human A549 cells at 2 to 4 uM incubated for 6 hrs by DCFH-DA staining based flow cytometry analysis; type: functional, cell-based; details: dose 2-4 µM
Lewis lung carcinoma [26] = test: Antitumor activity against mouse Lewis lung carcinoma cell line implanted in C57BL/6J mouse assessed as nuclear chromatin marginalization at 0.5 to 1 mg/kg, ip administered every day for 19 days by H and E staining based analysis; type: functional, organism-based; details: dose 0.5-1 mg/kg, time 19.0 day
A549 [27] = test: Induction of apoptosis in human A549 cells assessed as late apoptotic cells at 4 uM incubated for 48 hrs by Annexin V-FITC and PI staining based flow cytometric analysis (reference value: 0.73%); type: functional
A549 [28] = test: Induction of apoptosis in human A549 cells assessed as necrotic cells at 2 uM incubated for 48 hrs by Annexin V-FITC and PI staining based flow cytometric analysis (reference value: 4.68%); type: functional
A549 [29] = test: Antiproliferative activity against human A549 cells assessed as inhibition of cell growth incubated for 48 hrs by MTT assay; type: functional, cell-based; details: A549, 48 h
A549 [30] = test: Induction of intracellular ROS generation in human A549 cells at 2 to 4 uM by DCFH-DA staining based flow cytometry analysis; type: functional, cell-based; details: dose 2-4 µM, time 6.0 hrs, TDE = time-dependent effect
A549 [31] = test: Induction of apoptosis in human A549 cells assessed as decrease in PARP level at 2 to 4 uM by Western blot analysis; type: functional, cell-based; details: dose 2-4 µM
A549 [32] = test: Downregulation of PRDX5 level in human A549 cells at 2 to 4 uM by Western blot analysis; type: functional, cell-based; details: dose 2-4 µM
A549 [33] = test: Inhibition of cell invasion in human A549 cells at 2 to 4 uM by crystal violet staining based microscopic analysis; type: functional; details: dose 2-4 µM, time 12-48 hrs, TDE = time-dependent effect

Compound: CC1=C(OC(=O)/C=C/c2ccccc2)C(=O)C=C2C1=CC=C1[C@@]2(C)CC[C@@]2(C)[C@@H]3C[C@](C)(C(=O)NCc4nc(C)c(C)nc4C)CC[C@]3(C)CC[C@]12C
- Activity [1]: Non-Toxic
- inhibition (A549 [2]): Active
- Activity (A549 [3]): Active
- Activity (A549 [4]): Active
- IC50 (NCI-H1975): 1990 nM
- Activity [5]: Non-Toxic
- inhibition (A549 [6]): Active
- Activity (A549 [7]): Active
- viability at 2 µM (A549 [8]): 88.4%
- Activity [9]: Non-Toxic
- inhibition in vivo at 1 mg/kg [10]: 77.4%
- inhibition (A549 [11]): Active
- Activity (A549 [12]): Active
- Activity (Lewis lung carcinoma [13]): Active
- Activity (A549 [14]): Active
- Activity (A549 [15]): 18.5%
- inhibition (A549 [16]): Dose-Dependent Effect
- Activity (A549 [17]): 3.04%
- Activity (A549 [18]): 4.91%
- Activity (A549 [19]): Active
- Activity (A549 [20]): Active
- Activity (A549 [21]): 3.13%
- Activity (Lewis lung carcinoma [22]): Active
- IC50 (Peroxiredoxin-1): 164 nM
- Activity (A549 [23]): Active
- Activity (A549 [24]): Active
- Activity (A549 [25]): Active
- Activity (Lewis lung carcinoma [26]): Active
- Activity (A549 [27]): 33.4%
- Activity (A549 [28]): 3.57%
- IC50 (A549 [29]): 1920 nM
- Activity (A549 [30]): Tde
- Activity (A549 [31]): Active
- Activity (A549 [32]): Active
- inhibition (A549 [33]): Tde
